Some test systems named below: OVCAR-5 ovarian; IGROV1 ovarian; HS 578T breast; U251 CNS; T-47D breast; SW-620 colon; LOX IMVI melanoma; NCI-H23 lung; TK-10 renal; A549 NSCLC.
Assay in all cases: NCI-60 cell line screen, 48 h

“And” between values parts separate entries of the source, which are not always exact repeats. Identical values can stand only once.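 Protocol summary: plate cells (96-well), add compound at 5 concentrations, incubate 48 h, interpolate endpoints linearly. GI50 marks 50% less growth. TGI: total growth inhibition.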

Drawing on PubChem BioAssay (NCI), this text covers TGI and GI50 for 10 compounds.

In the case of `c1cncc(CNCc2cccnc2)c1`, the TGI in the assay on OVCAR-5 ovarian, in the assay on IGROV1 ovarian, in the assay on HS 578T breast, with U251 CNS, with T-47D breast and in the assay on SW-620 colon was over 100 µM throughout. Also, the TGI in the assay with LOX IMVI melanoma, in the assay on NCI-H23 lung, in the assay on TK-10 renal and in the assay on A549 NSCLC was over 100 µM in each case.

For the compound `CC1=Cc2ccc(C)cc2C(=O)C1=O`, the TGI was 37.2 µM in the assay on OVCAR-5 ovarian; 29.4 µM in the assay with IGROV1 ovarian; over 65.1 µM in the assay on HS 578T breast; 45.2 µM in the assay with U251 CNS; 5.36 µM in the assay on T-47D breast; over 100 µM in the assay with SW-620 colon. In addition, the TGI in the assay on LOX IMVI melanoma amounted to 20.7 µM; with NCI-H23 lung, 45.3 µM; with TK-10 renal, 3.68 µM; with A549 NSCLC, 50.2 µM.

With `CN(C)CCSS(=O)(=O)O`, the TGI in the assay with OVCAR-5 ovarian, in the assay on IGROV1 ovarian, with HS 578T breast, in the assay with U251 CNS, with T-47D breast and with SW-620 colon was over 100 µM each time. For the same compound, the TGI in the assay with LOX IMVI melanoma, in the assay on NCI-H23 lung, with TK-10 renal and with A549 NSCLC was over 100 µM throughout.

Regarding `C=CC(=O)Nc1cc(N2CCN(CC)CC2)ccc1Nc1cc(N(C)C(=O)Nc2c(Cl)c(OC)cc(OC)c2Cl)ncn1`, the GI50 in the assay with OVCAR-5 ovarian is 19.4 µM; in the assay with IGROV1 ovarian it was 2.58 µM; in the assay on HS 578T breast, 4.77 µM; in the assay with T-47D breast, 3.3 µM; with SW-620 colon, 3.29 µM; in the assay with LOX IMVI melanoma it was 2.82 µM. The GI50 in the assay with NCI-H23 lung is 4.36 µM; with TK-10 renal it was 10.6 µM; in the assay on A549 NSCLC it was 11.7 µM. The TGI in the assay with OVCAR-5 ovarian was found to be 51.2 µM; in the assay with IGROV1 ovarian it was 7.35 µM; with HS 578T breast, 40.8 µM; in the assay with T-47D breast it was 26.4 µM; in the assay on SW-620 colon, 11.7 µM; in the assay on LOX IMVI melanoma, 11.9 µM. Also, the TGI in the assay on NCI-H23 lung is 20 µM; in the assay on TK-10 renal it was 26 µM; in the assay on A549 NSCLC it was 37.6 µM.

As to `S=c1nc(N/N=C/c2ccco2)c2cn[nH]c2[nH]1`, the GI50 with OVCAR-5 ovarian is over 100 µM; in the assay on IGROV1 ovarian it was 46.9 µM; in the assay with HS 578T breast it was 42.5 µM; in the assay on U251 CNS, over 100 µM; with T-47D breast, 1.95 µM; in the assay with SW-620 colon, 51 µM. Further, the GI50 is 58.7 µM in the assay on LOX IMVI melanoma, over 100 µM in the assay on NCI-H23 lung, over 100 µM in the assay with TK-10 renal and 20 µM in the assay with A549 NSCLC. Besides, the TGI was over 100 µM in the assay with OVCAR-5 ovarian; over 100 µM in the assay with IGROV1 ovarian; over 100 µM with HS 578T breast; over 100 µM in the assay with U251 CNS; 48.1 µM in the assay with T-47D breast; over 100 µM with SW-620 colon. In addition, the TGI in the assay with LOX IMVI melanoma, with NCI-H23 lung, in the assay on TK-10 renal and in the assay with A549 NSCLC was over 100 µM throughout.

In the case of `COC(=O)C1=C(C(=O)OC)C2(C)C=CC1O2` (stereo unspecified), the TGI with OVCAR-5 ovarian turned out to be 31.5 µM; with IGROV1 ovarian, 37.5 µM; with HS 578T breast, 72 µM; with U251 CNS, 31.9 µM; in the assay with T-47D breast it was 13 µM; with SW-620 colon, 17.2 µM. In addition, the TGI is 34.5 µM with LOX IMVI melanoma, 32.4 µM in the assay with NCI-H23 lung, 8.24 µM in the assay on TK-10 renal and over 100 µM in the assay with A549 NSCLC.

On to `COc1cc(C)c(C2NC(=O)c3ccccc3N2)cc1C` (stereo unspecified), for which the TGI with OVCAR-5 ovarian is over 24.8 µM; in the assay with IGROV1 ovarian, over 100 µM; with HS 578T breast it was 0.908 µM; with U251 CNS, 13.9 µM; with T-47D breast, over 100 µM; in the assay with SW-620 colon, over 100 µM. The TGI in the assay on LOX IMVI melanoma was 97.9 µM; with NCI-H23 lung, over 70.2 µM; in the assay on TK-10 renal, over 100 µM; in the assay on A549 NSCLC, over 100 µM.

`CC(C)=CCC(OC(=O)C=C(C)C)C1=CC(=O)c2c(O)ccc(O)c2C1=O` (stereo unspecified): the GI50 in the assay with OVCAR-5 ovarian was 5.77 µM; with HS 578T breast, 14.3 µM; in the assay with U251 CNS, 1.71 µM; with SW-620 colon, 0.327 µM; with NCI-H23 lung, 2.46 µM and 1.06 µM; with TK-10 renal, 0.738 µM. For the same compound, the TGI with OVCAR-5 ovarian is 25.6 µM and 8.83 µM; in the assay on IGROV1 ovarian it was 4.42 µM; with HS 578T breast, 65.2 µM; with U251 CNS it was 3.61 µM and 9.1 µM; in the assay with SW-620 colon, 1.27 µM and 0.867 µM; in the assay on LOX IMVI melanoma, 0.894 µM and 3.07 µM. The TGI with NCI-H23 lung is 7.06 µM and 2.96 µM; in the assay with TK-10 renal, 2.41 µM; with A549 NSCLC it was 18.7 µM.

Regarding `O=C(NCCc1ccccn1)OCc1nc2nc(Cl)nc(N3CCOCC3)c2[nH]1`, the GI50 in the assay with OVCAR-5 ovarian is 1.67 µM; with IGROV1 ovarian, 1.57 µM; with HS 578T breast it was 2.71 µM; in the assay on U251 CNS, 3.39 µM; with T-47D breast, 2.13 µM; with SW-620 colon, 1.7 µM. Moreover, the GI50 in the assay with LOX IMVI melanoma was 0.372 µM; with NCI-H23 lung it was 1.77 µM; in the assay with TK-10 renal, 1.94 µM; in the assay with A549 NSCLC, 7.16 µM. Besides, the TGI in the assay with OVCAR-5 ovarian worked out at 3.38 µM; in the assay on IGROV1 ovarian, 2.98 µM; in the assay on HS 578T breast, 9.77 µM; with U251 CNS it was 12.2 µM; with T-47D breast, 6.48 µM; in the assay with SW-620 colon, 4.25 µM. Further, the TGI in the assay with LOX IMVI melanoma turned out to be 1.61 µM; with NCI-H23 lung it was 4.14 µM; with TK-10 renal it was 4 µM; in the assay with A549 NSCLC it was 24.9 µM.

`Cc1c(-c2ccnc(N)n2)c2c(n1Cc1ccccc1)C(=O)c1ccccc1C2=O`: the GI50 in the assay on OVCAR-5 ovarian was 47.4 µM; with IGROV1 ovarian, 4.84 µM; in the assay on HS 578T breast it was 2.62 µM; in the assay on U251 CNS, 3.91 µM; in the assay on T-47D breast, 47.8 µM; in the assay with SW-620 colon, 6.82 µM. Further, the GI50 in the assay on LOX IMVI melanoma is 1.98 µM; with TK-10 renal, 17.3 µM; in the assay on A549 NSCLC, over 100 µM. For the same compound, the TGI in the assay with OVCAR-5 ovarian was over 100 µM; with IGROV1 ovarian it was 54.7 µM; in the assay on HS 578T breast it was 8.05 µM; with U251 CNS, 36.2 µM; in the assay on T-47D breast, over 100 µM; in the assay on SW-620 colon it was over 100 µM. The TGI in the assay on LOX IMVI melanoma is 6.65 µM; with TK-10 renal, 66.8 µM; in the assay on A549 NSCLC, over 100 µM.
